# Laboratory results from US20060084694A1, “Ligand-dependant activation of Nur77 and uses thereof” (priority 2004, published 2006).
# Entries after “also recorded” stand apart in the source; their conditions may differ.
# How the values were obtained:
# Nur77 [1] = molecular target: T1, Nur77 (Homo sapiens, UniProt P22736); assay: Nur77 subcellular localization and level (immunostaining, Western blot of cytosolic and nuclear extracts)
# Procedure: The different cancer cell lines were cultured under standardized conditions. Panc-28 cells were grown in DMEM:Ham's F-12 media containing 2.5% charcoal stripped fetal bovine serum, and cells were treated with DMSO and different concentrations of test compounds as indicated. […] For all other assays, cytosolic, nuclear fractions, or whole cell lysates were obtained at various time points, analyzed by Western blot analysis, and bands were quantitated as previously described (Qin, et al., 2004; Abdelrahim, et al., 2002). Immunocytochemical analysis was determined using Nur77 antibodies as previously reported (Abdelrahim, et al., 2002).
# Sp1 is a nuclear protein and was used as a control to ensure efficient separation of the two extracts and Sp1 was identified only in the nuclear fraction.
# [2] = molecular target: VP-Nur77 (ligand binding domain) / GAL4-coactivator chimeras (Homo sapiens, UniProt P22736); conditions: Panc-28, VP-Nur77
# Sequence of VP-Nur77 (ligand binding domain) / GAL4-coactivator chimeras (P22736 360-595 limits assumed, change not shown): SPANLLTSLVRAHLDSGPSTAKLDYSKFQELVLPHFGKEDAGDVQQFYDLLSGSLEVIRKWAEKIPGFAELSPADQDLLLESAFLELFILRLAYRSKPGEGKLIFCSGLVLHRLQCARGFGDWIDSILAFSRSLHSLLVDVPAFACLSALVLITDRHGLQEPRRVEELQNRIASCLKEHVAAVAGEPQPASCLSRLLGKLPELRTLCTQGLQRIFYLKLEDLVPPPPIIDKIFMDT
# Procedure: Panc-28 cells were plated in 12-well plates at 1×10^5 cells/well in DME-F12 media supplemented with 2.5% charcoal-stripped FBS. After growth for 16 hr, various amounts of DNA, i.e. Gal4Luc (0.4 μg), β-gal (0.04 μg), VP-Nur77(E/F) (0.04 μg), pM SRC1 (0.04 μg), pMSRC2 (0.04 μg), pMSRC3 (0.04 μg), pMDRIP205 (0.04 μg) and pMCARM-1 (0.04 μg) were transfected by Lipofectamine (Invitrogen) according to the manufacturer's protocol. After 5 hr of transfection, the transfection mix was replaced with complete media containing either vehicle (DMSO) or the indicated ligand for 20-22 hr. Cells were then lysed with 100 ml of 1X reporter lysis buffer, and 30 μl of cell extract were used for luciferase and β-Gal assays. Lumicount was used to quantitate luciferase and β-Gal activities, and the luciferase activities were normalized to β-Gal activity.
# Ligand-induced Nur77-coactivator interactions were determined using a construct (pGAL4) containing 5 GAL4 response elements. Coactivators used in this study include SRC-1, SRC-2 (TIFII), SRC-3 (AIB1), PGC-1, TRAP220 and CARM-1. A GAL4-repressor (SMRT) chimera was also included in the assay.
# [3] = molecular target: T2, GAL4-Nur77 (full length) chimera (Homo sapiens, UniProt P22736); assay: GAL4-Nur77 (full length)/pGAL4 luciferase transactivation in Panc-28 cells; type: cell-based; conditions: for luciferase activity, GAL4-Nur77 (full length)/pGAL4: Panc-28 cells, 10 or 20 μM (FIG. 1B)
# T2 construct: Panc-28 cells transfected with a GAL4-Nur77 (full length) chimera; expressed in transfected cells; host or cells: Panc-28
# T2 sequence (P22736 whole entry, change not shown, the tested form may be a part): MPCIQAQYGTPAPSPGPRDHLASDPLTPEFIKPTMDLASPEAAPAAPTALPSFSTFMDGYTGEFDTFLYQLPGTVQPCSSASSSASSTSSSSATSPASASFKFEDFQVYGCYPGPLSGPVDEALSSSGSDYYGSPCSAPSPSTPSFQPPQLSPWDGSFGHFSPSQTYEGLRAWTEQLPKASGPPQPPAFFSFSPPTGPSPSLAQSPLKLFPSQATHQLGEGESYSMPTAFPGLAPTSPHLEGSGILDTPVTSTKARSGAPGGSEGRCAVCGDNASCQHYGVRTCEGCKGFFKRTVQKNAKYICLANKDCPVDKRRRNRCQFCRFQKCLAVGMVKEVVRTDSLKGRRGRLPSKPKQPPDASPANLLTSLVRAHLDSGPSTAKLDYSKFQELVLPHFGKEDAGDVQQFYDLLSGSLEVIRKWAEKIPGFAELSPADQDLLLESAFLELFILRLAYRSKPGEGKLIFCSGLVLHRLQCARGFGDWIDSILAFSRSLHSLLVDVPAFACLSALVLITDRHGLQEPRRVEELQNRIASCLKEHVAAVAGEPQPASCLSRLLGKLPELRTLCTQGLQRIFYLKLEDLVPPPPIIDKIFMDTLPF
# Text: Structure-dependent activation of Nur77 by a series of eleven C-substituted DIMs was investigated in Panc-28 cells transfected with a GAL4-Nur77 (full length) chimera and a reporter construct containing five GAL4 response elements linked to a luciferase reporter gene (pGAL4).
# (§1) Transfection assays were essentially carried out as previously described using Lipofectamine Plus reagent (Invitrogen, Carlsbad, Calif.) and luciferase activities were normalized to β-galactosidase activity. […] Results are expressed as means±SE for at least three replicate determinations for each treatment group.
# PPARγ = molecular target: T3, PPARγ (Homo sapiens, UniProt P37231); conditions: Qin, et al., 2004, Chintharlapalli; cited from earlier work
# T3 sequence (P37231 1-505): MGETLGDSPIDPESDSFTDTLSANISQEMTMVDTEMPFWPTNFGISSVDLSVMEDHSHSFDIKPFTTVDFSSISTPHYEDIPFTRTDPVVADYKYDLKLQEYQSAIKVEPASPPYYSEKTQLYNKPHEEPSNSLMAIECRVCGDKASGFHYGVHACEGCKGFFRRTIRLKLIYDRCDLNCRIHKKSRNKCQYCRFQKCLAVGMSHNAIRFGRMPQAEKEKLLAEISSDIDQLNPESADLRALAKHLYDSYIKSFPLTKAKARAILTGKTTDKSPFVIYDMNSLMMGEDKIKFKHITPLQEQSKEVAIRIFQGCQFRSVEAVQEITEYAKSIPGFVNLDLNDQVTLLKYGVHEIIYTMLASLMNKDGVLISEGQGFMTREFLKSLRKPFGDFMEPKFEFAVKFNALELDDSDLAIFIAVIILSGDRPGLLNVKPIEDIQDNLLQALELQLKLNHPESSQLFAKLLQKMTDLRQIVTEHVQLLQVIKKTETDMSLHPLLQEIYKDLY
# Panc-28 cell xenografts = assay: Tumor growth in athymic nude mice bearing Panc-28 cell xenografts; type: in vivo, athymic nude mice (BALB/c)
# Procedure: Male athymic nude mice (BALB/c, ages 8-12 weeks) were purchased from Harlan (Indianapolis, Ind.). The mice were housed and maintained in laminar flow cabinets under specific pathogen-free conditions. Panc-28 cells were harvested from subconfluent cultures by trypsinization and washed. Panc-28 cells (2×10^6) were injected subcutaneously into each mouse on both flanks using a 30-gauge needle. The tumors were allowed to grow for 11 days until tumors were palpable. Mice were then randomized into two groups of seven mice per group and dosed by oral gavage with either corn oil or DIM-C-pPhOCH3 every second day. The volume of corn oil was 75 μl, and the dose of DIM-C-pPhOCH3 was 25 mg/kg/day. The mice were weighed, and tumor areas were also measured ever other day. Final body and tumor weights were determined at the end of the dosing regiment; and selected tissues were further examined by routine H & E staining and immunohistochemical analysis for apoptosis using the TUNEL assay.
# TRAIL mRNA = TRAIL mRNA in Panc-28 cells (RT-PCR); type: cell-based; conditions: Panc-28 cells (FIG. 6B)
# Procedure: cDNA was prepared from the Panc-28 cell line using a combination of oligodeoxythymidylic acid (Oligo d(T)16), and dNTP mix (Applied Biosystems) and Superscript II (Invitrogen). Each PCR was carried out in triplicate in a 20-μl volume using Sybr Green Mastermix (Applied Biosystems) for 15 min at 95° C. for initial denaturing, followed by 40 cycles of 95° C. for 30 s and 60° C. for 1 min in the ABI Prism 7700 Sequence Detection System. The ABI Dissociation Curves software was used following a brief thermal protocol (95° C. 15 s and 60° C. 20 s, followed by a slow ramp to 95° C.) to control for multiple species in each PCR amplification. Values for each gene were normalized to expression levels of TBP. The sequences of the primers used for RT-PCR were as follows: TRAIL forward, 5′-CGTGTACTTTACCAACGAGCTGA-3′, reverse, 5′-ACGGAGTTGCCACTTGACTTG-3′; and TBP forward, 5′-TGCACAGGAGCCAAGAGTGAA-3′, reverse, 5′-CACATCACAGCTCCCCACCA-3′.
# Panc-28 cells [4] = assay: Annexin V-Alexa-488 / propidium iodide apoptosis assay in Panc-28 cells; type: cell-based
# Procedure: Detection of phosphatidylserine on the outside of the cell membrane, a unique and early marker for apoptosis, was performed using a commercial kit (Vybrant Apoptosis Assay Kit #2; Molecular Probes, Eugene, Oreg.). […] Binding of annexin V-Alexa-488 conjugate and propidium iodide (PI) was performed according to the manufacturer's instructions. After binding and washing, cells were observed under phase contrast and epifluorescent illumination using a 495-nm excitation filter and a 520-nm absorption filter for annexin V-Alexa 488 and a 546-nm excitation filter and a 590-nm absorption filter for PI. Healthy cells were unstained by either dye; cells in early stages of apoptosis were stained only by annexin V, while dead cells were stained by annexin V and PI. The assay was repeated on three separate Panc-28 cell preparations.
# GAL4-Nur77(E/F) = molecular target: T4, GAL4-Nur77(E/F) (Homo sapiens, UniProt P22736); assay: GAL4-Nur77(E/F)/pGAL4 transactivation in Panc-28 cells; type: cell-based; conditions: 5-15 μM (FIG. 2A)
# T4 construct: a chimeric GAL4-Nur77(E/F) construct containing only the E/F domain of Nur77; expressed in transfected cells; host or cells: Panc-28
# T4 sequence (P22736 360-595 limits assumed): as the sequence (P22736 360-595 limits assumed, change not shown) above
# Text: as §1
# (§2) (FIG. 2A). […] The structural specificity of Nur77 antagonists was further investigated using meta-hydroxy (DIM-C-mPhOH) and ortho-hydroxy (DIM-C-oPhOH) analogs. […] Thus, activation of Nur77 by C-DIMs was E/F domain-dependent and Nur77 activation was inhibited by DIM-C-pPhOH; moreover, both activation and inhibition of Nur77-mediated transactivation was dependent on the structure of the C-DIM compounds.
# PARP cleavage = PARP cleavage in Panc-28 cells (Western blot); type: cell-based
# Procedure: The different cancer cell lines were cultured under standardized conditions. Panc-28 cells were grown in DMEM:Ham's F-12 media containing 2.5% charcoal stripped fetal bovine serum, and cells were treated with DMSO and different concentrations of test compounds as indicated. For longer term cell survival studies, the media was changed every second day, and values were presented for a 4 day experiment. For all other assays, cytosolic, nuclear fractions, or whole cell lysates were obtained at various time points, analyzed by Western blot analysis, and bands were quantitated as previously described (Qin, et al., 2004; Abdelrahim, et al., 2002). Immunocytochemical analysis was determined using Nur77 antibodies as previously reported (Abdelrahim, et al., 2002).
# Nur77 [5] = molecular target: T1, Nur77; assay: Nur response element (NurRE) luciferase transactivation in Panc-28 cells; type: cell-based; set-up: endogenous in cells; host or cells: Panc-28; conditions: 10 or 20 μM (FIG. 1C)
# GAL4-Nur77 = molecular target: T5, GAL4-Nur77 (Homo sapiens, UniProt P22736); assay: Nur77 antagonist assay: cotreatment with Nur77 agonists, GAL4-Nur77/pGAL4 in Panc-28 cells; type: cell-based; conditions: Panc-28, cotreatment with Nur77 agonists; 10 or 20 μM (FIG. 2C-2E)
# T5 construct: expressed in transfected cells; host or cells: Panc-28
# T5 sequence (P22736 whole entry, the tested form may be a part): as the sequence (P22736 whole entry, change not shown, the tested form may be a part) above
# Text: as §1, §2
# Panc-28 cells [6] = assay: Cell survival of Panc-28 cells; type: cell-based
# Procedure: The different cancer cell lines were cultured under standardized conditions. Panc-28 cells were grown in DMEM:Ham's F-12 media containing 2.5% charcoal stripped fetal bovine serum, and cells were treated with DMSO and different concentrations of test compounds as indicated. For longer term cell survival studies, the media was changed every second day, and values were presented for a 4 day experiment.
# TRAIL = TRAIL protein expression in Panc-28 cells (Western blot); type: cell-based
# Text: In thymocytes, there is evidence that Nur77-induced apoptosis is linked to transcriptional activation (uang, et al., 1999), and microarray studies in thymocytes undergoing Nur77-dependent apoptosis identified several apoptosis-related genes including fasL and TRAIL (Rajpal, et al., 2003). […] (FIG. 6B). Since TRAIL activates the extrinsic apoptosis pathway and activation of caspase 8, the effect of a caspase 8 inhibitor (Z-IETD-FMK) and the pan-caspase inhibitor (Z-VAD-FMK) was also investigated on induction of PARP cleavage by Nur77 agonists (FIG. 6C).
# [7] = Panc-28, cotreatment with DIM-C-pPhOH3 or DIM-C-Ph (FIG. 6E)
# T1 sequence (P22736 whole entry, the tested form may be a part): as the sequence (P22736 whole entry, change not shown, the tested form may be a part) above
smiles,measurement,setting,value
COc1ccc(C(c2c[nH]c3ccccc23)c2c[nH]c3ccccc23)cc1 [DIM-C-pPhOCH3],"Nur77 translocation, Western blot of cytosolic and nuclear extracts","Nur77 [1]; Panc-28, 10 or 20 μM, 12 hr (FIG. 4B)",translocation from the nucleus is not observed
same,Nur77 localization by immunostaining,"Nur77 [1]; Panc-28 cells, 10 μM, 6 hr (FIG. 4A)",Nur77 remained in the nucleus
same,transactivation with GAL4-CARM-1,[2],slightly activated
same,transactivation with GAL4-SRC-3,[2],induced transactivation
same,"Nur77 activation, structure dependence (isomers and ring-substituted analogs)","[3]; FIG. 1D, analogs data not shown",active
same,"luciferase activity, GAL4-Nur77 (full length)/pGAL4",[3],activated luciferase activity
same,PPARγ activation,PPARγ,PPARγ-inactive
same,animal weight gain and organ weights,Panc-28 cell xenografts; 25 mg/kg/day vs corn oil,comparable
same,tumor weights,"Panc-28 cell xenografts; 25 mg/kg/day, oral gavage (FIG. 7B)",parallel decrease in tumor weights
same,tumor growth (area),"Panc-28 cell xenografts; 25 mg/kg/day, oral gavage every second day (FIG. 7A)",significantly inhibited tumor growth
same,brain regions by H & E staining,Panc-28 cell xenografts; treated vs corn oil,did not indicate any differences
same,TRAIL mRNA levels,TRAIL mRNA,induced TRAIL mRNA levels
same,annexin V-stained cells,"Panc-28 cells [4]; Panc-28, 10 and 20 μM, 8 and 12 hr (FIG. 5C)",time- and dose-dependent increase
same,PI staining after 6 hr,"Panc-28 cells [4]; Panc-28, 6 hr",minimal PI staining
same,annexin V-stained cells after 6 hr,"Panc-28 cells [4]; Panc-28, 6 hr",significantly increased
same,PI staining after 12 hr,"Panc-28 cells [4]; Panc-28, 12 hr",PI staining was increased
same,"luciferase activity, GAL4-Nur77(E/F)/pGAL4",GAL4-Nur77(E/F),induced luciferase activity
Oc1ccc(C(c2c[nH]c3ccccc23)c2c[nH]c3ccccc23)cc1 [DIM-C-pPhOH],inhibition of PARP cleavage induced by Nur77 agonists,PARP cleavage; [7],inhibited induction
same,cleavage of PARP,PARP cleavage; Panc-28 cells (FIG. 5B),did not induce this response
same,"luciferase activity, GAL4-Nur77 (full length)/pGAL4",[3],inactive; also recorded: did not induce activity
same,activation of NurRE construct,Nur77 [5],inactive
same,Nur77 antagonist activity (inhibition of agonist-induced transactivation),GAL4-Nur77,antagonizes activation of Nur77 by all three C-DIM compounds
same,"luciferase activity, GAL4-Nur77(E/F)/pGAL4",GAL4-Nur77(E/F),no response was observed
same,effect on cell survival,Panc-28 cells [6]; Panc-28 (FIG. 5A),did not affect cell survival
same,cell proliferation at longer time points,"Panc-28 cells [6]; Panc-28, 4 and 6 days",slightly inhibited cell proliferation
same,induction of cell death,"Panc-28 cells [6]; Panc-28, concentrations as high as 20 μM",induction of cell death was not observed
same,inhibition of TRAIL protein expression induced by Nur77 agonists,TRAIL; [7],inhibited induction
same,TRAIL protein expression,TRAIL; Panc-28 cells (FIG. 6A),did not induce TRAIL
